Legend:
HaCaT cells = assay: MTT cell viability assay, dose response and time course; type: cell-based, human; conditions: for reduction of keratinocyte turnover or proliferation rate as determined by MTT cell viability tests: 72 hours
Procedure: Cell viability was measured by MTT assay.
Untreated cells were used as negative controls. […] A proper blank control was subtracted from the measurements.
The assay was carried out in triplicate. Untreated cells were used as negative controls.

HaCaT keratinocyte cells [1] = assay: Caspase-3 apoptosis assay; type: cell-based, human; conditions: HaCaT keratinocytes cell line, 72 hours
Procedure: Apoptosis was measured by the caspase-3 assay. Results are shown as percent of control. Staurosporine (100 nM) served as positive control. Mean±SEM; n=3. *p<0.05 for reduction from untreated control. HaCaT cells were seeded in a 96 well plates in concentration of 0.3×10^6 cells/mL in […] in complete growth medium (DMEM supplemented with 10% FBS and antibiotics). […] The assay was carried out in triplicates. Untreated cells were used as negative controls. At the end of each incubation period, cell viability and the extent of apoptosis were measured by MTT and Caspase-3 assays, respectively. A proper blank control was subtracted from the measurements.

HaCaT keratinocyte cells [2] = assay: BrdU ELISA assay of turnover rate (DNA replication); type: cell-based, human; conditions: 48 hr incubation
Procedure: Turnover rate was measured by BrdU. […] Staurosporine served as positive control. Mean±SEM; n=3. *p<0.05 for reduction from untreated control.
HaCaT cells were incubated without or with the indicated concentrations of selenium cysteine for 48 hr. Turnover rate was measured by BrdU. […] Mean±SEM; n=3. *p<0.05 for reduction from untreated control.
To further investigate the impact of selenium methionine on the cells, the DNA replication rate of the cells was monitored by the BrdU assay. […] The assay was carried out in triplicate.
The BrdU ELISA assay was performed according to kit manufacturer instructions. Briefly, during the final 16 hours of culture, BrdU was added to each well. The cells were fixed, permeabilized, and DNA denatured by the addition of buffers. BrdU monoclonal antibody was pipetted into the wells and allowed to bind for one hour. Colorimetric evaluation of the turnover rate was recorded by ELISA reader. The BrdU assay captures a 16 hr window, which gives a wide view on the proliferation rate of the cells.
To further investigate the impact of selenium cysteine on the cells, the DNA replication rate of the cells was monitored by a BrdU incorporation assay. The purpose was to determine the ability of selenium cysteine at selected concentrations and times to reduce HaCaT keratinocytes cells turnover rate. The assay was carried out in triplicates. The positive control was stautosporine (100 nM). The cells were seeded in 6- or 96-well plates in complete growth medium at 37° C. with 5% CO2 under humidified atmosphere. The cells were incubated with or without selenium cysteine for the selected time points and concentrations determined in Example 6. BrdU incorporation was performed at the selected concentration and a 48 hr time point was chosen for the BrdU assay.

HaCaT keratinocyte cells [3] = assay: Cell cycle analysis by flow cytometry (FACS); type: cell-based, human; conditions: HaCaT cells synchronized by serum deprivation, 24 hr incubation
Procedure: HaCaT keratinocyte cells were synchronized by serum deprivation for 24 hr. […] Cell cycle was measured by FACS analysis. […] Staurosporine (100 nM) served as positive control. Mean±SEM; n=3. *p<0.05 for reduction from untreated control.
BrdU and FACS analyses were performed in one selected concentration. Two time points (24 hr and 48 hr) were chosen for the flow cytometry and one for the BrdU assay. In order to induce culture synchronization, serum-free medium was used prior of BrdU/FACS analyses in the 24 hr treatment groups.
The effect of selenium methionine on cell cycle was analyzed by flow cytometry (FACS). At the end of the treatment, the cells were harvested by trypsinization and counted. Approximately 1.3×10^6 cells were transferred to a new tube, centrifuged for 5 min at 1500 rpm (2-8° C.), and suspended in 0.5 ml of ice cold PBS. Then, the cells were fixed by adding 2.5 ml of 70% ethanol (2-8° C.) in a dropwise manner. The cells were stored at 2-8° C. for 48 hr at this stage. After 30 min of incubation, the samples were washed 3×1 mL PBS and 0.5 mL of ribonuclease stock solution (0.2 mg/mL supplemented with 0.1% (v/v) Triton x-100 in PBS) were added to the cell pellet for 1 hr at rt. This step was performed to ensure only DNA, not RNA, was stained. 0.5 mL of propidium iodide (PI, 100 μg/ml) was added to the samples still suspended in the ribonuclease stock solution. […]

Human stratum corneum = assay: Thiol degradation assay ex vivo in human skin tissue; conditions: 2 hr
Procedure: Then, the mixtures were analyzed for free thiol moieties concentration.
The skin was cleaned, washed with PBS, and then the epidermis was peeled. The epidermis was incubated with 100 mL of 0.005% trypsin (in PBS) at 37° C. overnight. The stratum corneum was washed with HPLC grade water and transferred to a clean Eppendorf tube. The water was evaporated by SpeedVac and the stratum corneum was washed once again with ice cold hexane to exclude residuals lipids in the fraction. The solvent was removed by SpeedVac.
The stratum corneum pieces were weighed in order to determine their dry weight. 50 mg of dried stratum corneum was dissolved in 1M NaOH and mixed thoroughly for 1 hr. Stratum corneum was treated with or without the test items for 2 hr. L-acetylcysteine containing free thiol moieties served as positive control. To isolate the free thiol moieties from the mixture, the samples or blank (50 μl) were incubated with equal volume of TCA (trichloroacetic acid) for 5 min. Then, the tubes were centrifuge for 15 min at 10,000 rpm at room temperature. The pellet was evaluated. Ellman's reagent stock solution (3 mM) was prepared in methanol. […] The 96-well plates were incubated for 5 min at RT, mixed, and the optical absorbance was recorded at 412 nm. A standard calibration curve was read simultaneously without the TCA precipitation step.

Molecule | reduction of keratinocyte turnover or proliferation rate as determined by MTT cell viability tests (HaCaT cells) | activation of caspase-3 apoptosis marker (apoptotic effect) (HaCaT keratinocyte cells [1]) | effect on proliferation of the cells (DNA replication, BrdU) (HaCaT keratinocyte cells [2]) | effect on cell cycle (cell arrest properties) (HaCaT keratinocyte cells [3]) | elevation in thiol degradation assay releasing free SH moieties (Human stratum corneum) | reduction of proliferation of keratocytes (BrdU, DNA replication) (HaCaT keratinocyte cells [2]) | cell viability (MTT) (HaCaT cells; positive control 0.1%)
O=C(O)c1ccccc1O [SA, Salicylic acid] | no dose dependent effect | significant increase | does not affect the proliferation | no cell arrest properties | caused elevation |  | 
CN[C@@H]1C[C@H]2O[C@@](C)([C@@H]1OC)n1c3ccccc3c3c4c(c5c6ccccc6n2c5c31)C(=O)NC4 [staurosporine] |  |  | dose-dependent reduction |  |  |  | 
selenium methionine | significant dose-dependent effect | significant increase |  | elongation of the S phase in the cell cycle and lowered M phase | up to 35% | up to 60% | 
CCCCCCCCCCCCOS(=O)(=O)[O-].[Na+] [SDS] |  |  |  |  |  |  | significantly decreased cell viability
selenium cysteine | significant dose-dependent effect |  |  |  |  | more than 90% | 

From US20230013824A1, “COMPOSITIONS FOR THE TREATMENT OF HYPERKERATOSIS DISORDERS” (Azura Ophthalmics Ltd., priority 2016, published 2023)
